Entries after “also recorded” stand apart in the source; their conditions may differ.
How the values were obtained:
FGFR2 (bek) [1] = assay: Cross-linking (BS^3) of FGF receptors in mutant CHO-pgsD-677 cells, receptor dimerization; type: cell-based, human; settings: 0.1 nM aFGF, with or without 50 nM heparin
Procedure: (§1) Parental (lanes 1-4) and mutant CHO cells (lanes 5-8) were incubated with either 50 nM heparin (lanes 2 and 6), 0.1 nM aFGF (lanes 3 and 7), or both (lanes 4 and 8), for 1 hour at 4° C. Cells were then treated with the covalent cross-linking agent BS^3 for […] at room temperature, solubilized and immunoprecipitated with anti-FGFR2 antibodies. The samples were analyzed by a gradient SDS gel (6-8%), transferred to nitrocellulose membranes and probed with anti-FGFR2 antibodies. M--FGFR monomers; D--FGFR dimers.
(§2) Cells grown in fibronectin-coated dishes were starved overnight in F-12 medium containing 0.5% FBS. Cells were then washed with ice-cold binding medium (F-12 medium containing 20 mM Hepes (pH 7.5) and 0.1% BSA), and incubated for 1 hour at 4° C. with either aFGF (0.1 nM), heparin (50 nM), or both. The cells were then washed twice with cold PBS and incubated with 1 mM BS^3 in PBS for 20 minutes at room temperature. The cross-linking reaction was quenched by the addition of 50 mM Tris-HCl and 100 mM glycine for 10 min at room temperature. […]
(§3) Full-length FGFR2 was transfected into two CHO cell lines; wild-type CHO-K1, and the mutant CHO-pgsD-677, which is defective in heparin sulfate expression at its cell-surface (Esko, 1991). […] Cells were then lysed, and immunoprecipitated FGFR2 was analyzed by SDS-PAGE followed by immunoblotting with anti-FGFR2 antibodies.

FGFR2 (bek) [2] = assay: Tyrosine phosphorylation of FGFR2 in wild-type CHO-K1 cells; type: cell-based, human; settings: 0.1 nM aFGF alone, 5 min at 37° C.
Procedure: Cells were lysed and the receptor was immunoprecipitated with anti-FGFR2 antibodies. Samples were then analyzed by SDS-PAGE, transferred to nitrocellulose membranes, and tyrosine-phosphorylated proteins were detected by immunoblotting with anti-phosphotyrosine antibodies.
Wild-type CHO cells (CHO-K1), as well as heparin sulfate-deficient mutant cells (CHO-pgsD-677) which were kindly provided by Prof. J. Esko (Esko, 1991), were cultured in F-12 medium containing 7.5% FBS, 1% Ampicillin/Streptomycin and 1% glutamine. Both CHO cell lines were co-transfected with the wild-type human FGFR2 (bek) DNA in the expression vector pMJ30 (Dionne et al., 1990) (40 μg/10 cm dish) and the pSVneo resistant gene (0.5 mg/10 cm dish), using the calcium phosphate method (Chen and Okayama, 1987). Geneticin (1 mg/ml) resistant clones were screened for expression of the receptor by immunoprecipitation and immunoblotting analysis using anti-FGFR2 antibodies.
Wild-type and mutant CHO cells were starved overnight in F-12 medium containing 0.5% FBS, and stimulated with either 0.1 nM aFGF, 50 nM heparin, or both, for 5 min at 37° C. Cells were lysed, immunoprecipitated with anti-FGFR2 antibodies and analyzed by immunoblotting with anti-phosphotyrosine (anti-PTyr) antibodies.

FGFR2 (bek) [3] = assay: Cross-linking (BS^3) of FGF receptors in CHO-K1 cells, receptor dimerization; type: cell-based, human; settings: 0.1 nM aFGF, with or without 50 nM heparin
Procedure: as §1, §2, §3

[4] = target: sFGFR (soluble extracellular domain of FGFR2 (bek)); assay: Isothermal titration calorimetry, aFGF binding to sFGFR; set-up: species or system human; settings: ITC
Text: A plasmid encoding the extracellular, ligand-binding domain of human FGFR2 (residues 1-355) was constructed using standard oligonucleotide-directed mutagenesis (Amersham) to introduce a translational termination codon immediately prior to the beginning of the single transmembrane domain of the receptor (Dionne et al., 1990). BamHI and SacII restriction sites were introduced 3' to the new termination codon. An XbaI-SacII fragment was isolated from the replicative form (RF) of this M13 mutagenesis product, filled in using T4 DNA polymerase (Boehringer-Mannheim) and inserted into the SmaI site of the expression vector pCVN (Dionne et al., 1990). This expression vector, which contains both the neomycin resistance and the dihydrofolate reductase genes for selection and amplification, was transfected into CHO cells following published procedures. Wigler et al., 1979, Cell 16:777-785.
The binding of aFGF to sFGFR was studied using the technique of isothermal titration calorimetry (ITC). In this technique the heat liberated (or absorbed) upon binding is monitored as small aliquots of ligand are added sequentially to a solution of the receptor at known concentration, which is maintained at constant temperature. […]

[5] = tested on: FGFR1 extracellular domain; settings: Kan et al., 1993; cited from earlier work
[6] = tested on: sFGFR (soluble extracellular domain of FGFR2); assay: Isothermal titration calorimetry, heparin binding to sFGFR; set-up: species or system human; settings: ITC
[7] = tested on: sFGFR (soluble extracellular domain of FGFR2); assay: Binding of sFGFR to a heparin-sepharose column; set-up: species or system human
[8] = tested on: vascular endothelial cells; settings: cited from earlier work

aFGF: aFGF was expressed in E. coli and purified by binding to a heparin-sepharose column
receptor dimerization in mutant CHO-pgsD-677 cells (FGFR2 (bek) [1]): could only induce the dimerization of FGFR2 when exogenous heparin was added; also recorded: can only induce FGFR dimerization in the presence of heparin
FGFR2 autophosphorylation in CHO-K1 cells (FGFR2 (bek) [2]): stimulation of FGFR2 autophosphorylation
receptor dimerization in CHO-K1 cells (FGFR2 (bek) [3]): could induce receptor dimerization regardless of the presence of exogenous heparin
Kd ([4]; single class of binding sites, mean ± SD of three experiments, no added heparin): 528 ± 173 nM

heparin
binding to the extracellular domain of FGFR1 [5]: binds to the extracellular domain of FGFR1
heparin binding to sFGFR [6]: failed to detect an interaction with significant affinity; also recorded: could not be detected; also recorded: does not itself interact with sFGFR
effect of heparin on the aFGF/sFGFR binding parameters ([4]; sFGFR titrated into mixture of heparin and aFGF): no effect upon the binding parameters could be detected; also recorded: does not detectably affect the interaction; also recorded: does not influence the affinity of the aFGF/sFGFR interaction
binding of sFGFR to heparin-sepharose column [7]: could not be detected
mitogenic effect of aFGF on vascular endothelial cells [8]: potentiates the mitogenic effect of aFGF on vascular endothelial cells
